Laboratory results published in US12427192B2, “Water soluble adjuvant and composition containing same” (Sumitomo Pharma Co., Ltd., priority 2019, dated 2025).

Key:
[1] = test system: HLA-A*02:01 transgenic mouse; test: Test 14: in vivo adjuvant activity, cocktail vaccine i (oily suspension formulation), IFNγ ELISPOT; details: added to cocktail vaccine i (oily suspension formulation); 0.04 nmol or 0.4 nmol per body, twice; FIG. 15 and 16
Protocol: (§1) Evaluation of In Vivo Adjuvant Activity in HLA-A*02:01 Transgenic Mouse
The in vivo adjuvant activity of the compound of Example 1 was evaluated in the following procedure. To a cocktail vaccine (oily suspension formulation) comprising Compound of formula 4 prepared in Reference example 8 and Peptide SEQ ID No. 3 prepared in Reference example 3 (hereinafter, referred to as “cocktail vaccine i”) was added the compound prepared in Example 1 to prepare a vaccine. The vaccine was administered to a HLA-A*02:01 transgenic mouse, and the adjuvant activity of the vaccine was evaluated by the method of testing antigen-specific CTL induction.
For example, the above oily suspension formulation was prepared as follows. […]
Cocktail vaccine i was injected to mice intradermally at the tail base area in an amount for administering 300 μg of Compound of formula 4 per body and 225 μg of Peptide SEQ ID No. 3 per body. […] Then, after removal of the supernatant from the wells, stained spots on the ELISPOT plate were counted.

[2] = test system: HLA-A*02:01 transgenic mouse; test: Test 17: in vivo adjuvant activity, liposome formulation 2, IFNγ ELISPOT; details: added to cocktail vaccine 1 (liposome formulation 2); 0.4 nmol per body, twice; FIG. 20 and 21
Protocol: as §1
The in vivo adjuvant activity of the compound of Example 1 was evaluated in the following procedure.
To a vaccine (liposome formulation 2) comprising Compound of formula 4 prepared in Reference example 8 and Peptide SEQ ID No. 3 prepared in Reference example 3 (hereinafter, referred to as “cocktail vaccine 1”) was added the compound prepared in Example 1 to prepare a vaccine. The vaccine was administered to a HLA-A*02:01 transgenic mouse, and the adjuvant activity of the vaccine was evaluated by the method of testing antigen-specific CTL induction.
For example, the above liposome formulation 2 was prepared as follows. 42.66 mg of sphingomyelin and 15.47 mg of cholesterol were dissolved in t-butyl alcohol, and the mixture was lyophilized. […]
Cocktail vaccine 1 was injected to mice intradermally at the tail base area in an amount for administering 500 μg of Compound of formula 4 per body and 375 μg of Peptide SEQ ID No. 3 per body. […] Then, after removal of the supernatant from the wells, stained spots on the ELISPOT plate were counted.

CCCCCNc1nc(N)nc(C)c1Cc1ccc(CN(C)CCOCCOCCOCCOCCO)cc1OC [Example 1, 1-(4-{[2-amino-4-methyl-6-(pentylamino)pyrimidin-5-yl]methyl}-3-methoxyphenyl)-2-methyl-5,8,11,14-tetraoxa-2-azahexadecan-16-ol·trifluoroacetate]
CTL counts responsive to Peptide SEQ ID No. 1 or SEQ ID No. 4 compared with adding no compound [1]: more | CTL counts responsive to Peptide SEQ ID No. 1 or SEQ ID No. 4 compared with adding no compound [2]: more
